# According to patent US8637501B2, “Azinone-substituted azepino[b]indole and pyrido-pyrrolo-azepine MCH-1 antagonists, methods of making, and use thereof” (Albany Molecular Research, Inc., priority 2009, dated 2014):
# How the values were obtained:
# human MCH-1 receptor = human MCH-1 receptor (Homo sapiens (Human), UniProt Q99705); experiment: Binding Assay for Human Melanin-Concentrating Hormone (MCH-1) Receptor; conditions: radioligand displacement, membranes from CHO-K1 cells expressing human MCH-1 receptor; Ki from IC50 by Cheng Prusoff equation; read-out: MCH1 Ki
# Sequence of human MCH-1 receptor (Q99705 whole entry): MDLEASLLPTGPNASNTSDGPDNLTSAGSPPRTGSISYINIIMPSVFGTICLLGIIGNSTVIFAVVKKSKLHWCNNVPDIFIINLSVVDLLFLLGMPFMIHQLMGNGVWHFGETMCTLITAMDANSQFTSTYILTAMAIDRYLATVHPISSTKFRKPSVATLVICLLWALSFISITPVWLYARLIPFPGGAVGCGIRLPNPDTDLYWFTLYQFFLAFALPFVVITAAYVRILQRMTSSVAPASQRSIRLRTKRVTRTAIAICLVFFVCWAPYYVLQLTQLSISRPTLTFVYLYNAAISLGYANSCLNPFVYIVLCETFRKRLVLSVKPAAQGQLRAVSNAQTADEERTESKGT
# Outline: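 Membranes from CHO-K1 cells stably expressing human MCH-1 incubated 60 min at 25 °C with 1.4 nM tritiated indazolyl-pyridinone radioligand in 50 mM Tris-HCl pH 7.4. Bound counts by filtration and scintillation; IC50 and nH by Hill fit, Ki by Cheng–Prusoff.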
SMILES,Ki (human MCH-1 receptor) [nM],melting point
"Cl.Cn1c2c(c3ccc(-n4ccc(OCc5ccccc5)cc4=O)nc31)CCNCC2 [Example 77, 4-(Benzyloxy)-1-(10-methyl-5,6,7,8,9,10-hexahydropyrido[3′,2′:4,5]pyrrolo[2,3-d]azepin-2-yl)pyridin-2(1H)-one hydrochloride]",11,180 to 185 °C (dec.)
"Cl.Cn1c2c(c3ccc(-n4ccc(-c5ccc(C(F)(F)F)nc5)cc4=O)nc31)CCNCC2 [Example 78, 1-(10-Methyl-5,6,7,8,9,10-hexahydropyrido[3′,2′:4,5]pyrrolo[2,3-d]azepin-2-yl)-4-(6-(trifluoromethyl)pyridin-3-yl)pyridin-2(1H)-one hydrochloride]",29,320 to 325 °C (dec.)
"Cl.Cn1c2c(c3ccc(-n4ccc(-c5ccc(C(F)(F)F)nn5)cc4=O)nc31)CCNCC2 [Example 79, 1-(10-Methyl-5,6,7,8,9,10-hexahydropyrido[3′,2′:4,5]pyrrolo[2,3-d]azepin-2-yl)-4-(6-(trifluoromethyl)pyridazin-3-yl)pyridin-2(1H)-one hydrochloride]",235,300 to 305 °C (dec.)
"Cl.Cn1c2c(c3ccc(-n4ccc(-c5ccc(C(F)(F)F)cn5)cc4=O)nc31)CCNCC2 [Example 80, 1-(10-Methyl-5,6,7,8,9,10-hexahydropyrido[3′,2′:4,5]pyrrolo[2,3-d]azepin-2-yl)-4-(5-(trifluoromethyl)pyridin-2-yl)pyridin-2(1H)-one hydrochloride]",69,310 to 314 °C (dec.)
"Cl.Cn1c2c(c3ccc(-n4ccc(OCc5ccc(F)cn5)cc4=O)nc31)CCNCC2 [Example 81, 4-((5-Fluoropyridin-2-yl)methoxy)-1-(10-methyl-5,6,7,8,9,10-hexahydropyrido[3′,2′:4,5]pyrrolo[2,3-d]azepin-2-yl)pyridin-2(1H)-one hydrochloride]",33,238 to 240 °C
"Cl.Cn1c2c(c3ccc(-n4ncc(OCc5ccc(F)cn5)cc4=O)nc31)CCNCC2 [Example 82, 5-((5-Fluoropyridin-2-yl)methoxy)-2-(10-methyl-5,6,7,8,9,10-hexahydropyrido[3′,2′:4,5]pyrrolo[2,3-d]azepin-2-yl)pyridazin-3(2H)-one hydrochloride]",53,226 to 230 °C (dec.)
"Cl.Cn1c2c(c3ccc(-n4ccc(-c5ccc(C(F)(F)F)nc5)cc4=O)nc31)CNCCC2 [Example 89, 1-(10-Methyl-5,6,7,8,9,10-hexahydropyrido[3′,2′:4,5]pyrrolo[3,2-c]azepin-2-yl)-4-(6-(trifluoromethyl)pyridin-3-yl)pyridin-2(1H)-one hydrochloride]",15,308 to 312 °C
"Cl.Cn1c2c(c3ccc(-n4ccc(OCc5ccccc5)cc4=O)nc31)CNCCC2 [Example 90, 4-(Benzyloxy)-1-(10-methyl-5,6,7,8,9,10-hexahydropyrido[3′,2′:4,5]pyrrolo[3,2-c]azepin-2-yl)pyridin-2(1H)-one hydrochloride]",6.4,328 to 332 °C
"Cl.Cn1c2c(c3ccc(-n4ccc(OCc5ncc(F)cc5F)cc4=O)cc31)CCNCC2 [Example 102, 4-((3,5-Difluoropyridin-2-yl)methoxy)-1-(6-methyl-1,2,3,4,5,6-hexahydroazepino[4,5-b]indol-8-yl)pyridin-2(1H)-one hydrochloride]",22,215 to 225 °C
"Cl.Cn1c2c(c3ccc(-n4ccc(OCc5ncc(F)cc5F)cc4=O)cc31)CNCCC2 [Example 106, 4-((3,5-Difluoropyridin-2-yl)methoxy)-1-(6-methyl-1,2,3,4,5,6-hexahydroazepino[4,3-b]indol-8-yl)pyridin-2(1H)-one hydrochloride]",18,180 to 190 °C
